Experiments:
Assay type in all cases: cell-based
[1] = target: T1, von Hippel-Lindau disease tumor suppressor/Aryl hydrocarbon receptor (Homo sapiens, UniProt P35869+P40337); assay: Protac activity at VHL/AhR in human MCF7 cells assessed as induction of AhR protein degradation by measuring AhR protein level at 20 uM incubated for 8 hrs in presence of proteasome inhibitor, MG132 by western blot analysis relative to lamin B; conditions: mcf7, 8 h
[2] = target: T1, von Hippel-Lindau disease tumor suppressor/Aryl hydrocarbon receptor; assay: Protac activity at VHL/AhR in human MCF7 cells assessed as induction of AhR protein degradation by measuring AhR protein level at 20 uM incubated for 24 hrs by western blot analysis relative to lamin B; conditions: mcf7, 24 h
[3] = target: T2, von Hippel-Lindau disease tumor suppressor/Estrogen receptor (Homo sapiens) (UniProt P03372+P40337); assay: Protac activity at VHL/ERalpha in human MCF7 cells assessed as induction of ERalpha protein degradation by measuring ERalpha protein level at 10 uM incubated for 8 hrs by western blot analysis relative to lamin B
T2 sequence (P03372 whole entry, looked up): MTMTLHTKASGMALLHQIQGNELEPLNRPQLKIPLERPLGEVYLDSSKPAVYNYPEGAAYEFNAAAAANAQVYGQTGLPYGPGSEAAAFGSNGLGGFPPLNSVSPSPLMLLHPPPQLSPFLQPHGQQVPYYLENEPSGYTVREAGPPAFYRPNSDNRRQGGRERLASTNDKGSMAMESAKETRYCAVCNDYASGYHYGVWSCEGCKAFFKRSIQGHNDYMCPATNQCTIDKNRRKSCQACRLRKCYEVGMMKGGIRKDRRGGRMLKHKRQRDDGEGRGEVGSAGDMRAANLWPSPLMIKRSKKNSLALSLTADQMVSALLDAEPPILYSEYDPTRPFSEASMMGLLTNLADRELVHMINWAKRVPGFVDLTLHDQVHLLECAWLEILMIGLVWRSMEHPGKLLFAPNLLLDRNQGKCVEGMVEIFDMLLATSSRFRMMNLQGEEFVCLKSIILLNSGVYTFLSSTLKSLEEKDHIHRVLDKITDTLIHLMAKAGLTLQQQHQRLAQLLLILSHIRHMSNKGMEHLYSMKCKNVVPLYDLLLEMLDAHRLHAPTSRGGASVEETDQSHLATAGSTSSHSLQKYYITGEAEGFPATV
T2 sequence (P40337 whole entry, looked up): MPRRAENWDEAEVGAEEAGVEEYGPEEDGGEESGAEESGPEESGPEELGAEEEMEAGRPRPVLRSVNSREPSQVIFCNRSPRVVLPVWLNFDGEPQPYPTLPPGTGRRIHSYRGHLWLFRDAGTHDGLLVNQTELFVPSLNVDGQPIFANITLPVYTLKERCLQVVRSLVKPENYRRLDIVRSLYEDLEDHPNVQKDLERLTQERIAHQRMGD

[4] = target: T2, von Hippel-Lindau disease tumor suppressor/Estrogen receptor (Homo sapiens); assay: Protac activity at VHL/ERalpha in human MCF7 cells assessed as induction of ERalpha protein degradation by measuring ERalpha protein level at 20 uM incubated for 8 hrs in presence of proteasome inhibitor, MG132 by western blot analysis relative to lamin B
[5] = target: T3, von Hippel-Lindau disease tumor suppressor/Androgen receptor (Homo sapiens) (UniProt P10275+P40337); assay: Protac activity at VHL/AR in human MCF7 cells assessed as induction of AR protein degradation by measuring AR protein level at 20 uM incubated for 24 hrs by western blot analysis relative to lamin B
T3 sequence (P10275 whole entry, looked up): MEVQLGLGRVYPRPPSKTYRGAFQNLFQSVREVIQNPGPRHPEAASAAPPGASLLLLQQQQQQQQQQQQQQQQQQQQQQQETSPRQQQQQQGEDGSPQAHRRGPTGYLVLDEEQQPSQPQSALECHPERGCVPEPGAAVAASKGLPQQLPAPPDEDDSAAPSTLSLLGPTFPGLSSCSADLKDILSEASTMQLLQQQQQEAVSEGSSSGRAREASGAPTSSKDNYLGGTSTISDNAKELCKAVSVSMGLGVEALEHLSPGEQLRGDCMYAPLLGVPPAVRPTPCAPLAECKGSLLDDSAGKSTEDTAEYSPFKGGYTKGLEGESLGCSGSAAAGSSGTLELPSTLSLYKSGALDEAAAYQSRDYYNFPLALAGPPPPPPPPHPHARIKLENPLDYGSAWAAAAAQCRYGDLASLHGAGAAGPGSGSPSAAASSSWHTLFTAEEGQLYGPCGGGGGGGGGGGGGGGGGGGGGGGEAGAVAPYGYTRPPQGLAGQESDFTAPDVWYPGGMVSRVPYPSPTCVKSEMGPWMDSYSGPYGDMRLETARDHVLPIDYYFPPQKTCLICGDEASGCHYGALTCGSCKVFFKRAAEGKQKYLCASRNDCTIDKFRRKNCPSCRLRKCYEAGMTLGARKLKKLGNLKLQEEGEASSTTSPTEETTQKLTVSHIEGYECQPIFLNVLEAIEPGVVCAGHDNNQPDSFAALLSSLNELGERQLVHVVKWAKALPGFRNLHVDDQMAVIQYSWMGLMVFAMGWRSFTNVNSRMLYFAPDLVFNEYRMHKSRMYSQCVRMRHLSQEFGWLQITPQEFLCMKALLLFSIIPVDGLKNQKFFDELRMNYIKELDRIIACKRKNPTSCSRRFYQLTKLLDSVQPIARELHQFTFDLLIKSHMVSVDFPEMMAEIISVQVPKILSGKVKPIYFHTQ
T3 sequence (P40337 whole entry, looked up): as the sequence (P40337 whole entry, looked up) above

[6] = target: T3, von Hippel-Lindau disease tumor suppressor/Androgen receptor (Homo sapiens); assay: Protac activity at VHL/AR in VHL siRNA-transfected human MCF7 cells assessed as induction of AR protein degradation by measuring AR protein level at 20 uM incubated for 8 hrs by western blot analysis relative to lamin B
[7] = target: T3, von Hippel-Lindau disease tumor suppressor/Androgen receptor (Homo sapiens); assay: Protac activity at VHL/AR in human MCF7 cells assessed as induction of AR protein degradation by measuring AR protein level at 5 uM incubated for 8 hrs by western blot analysis relative to lamin B
[8] = target: T1, von Hippel-Lindau disease tumor suppressor/Aryl hydrocarbon receptor; assay: Protac activity at VHL/AhR in human MCF7 cells assessed as induction of AhR protein degradation by measuring AhR protein level at 20 uM incubated for 8 hrs by western blot analysis relative to lamin B; conditions: mcf7, 8 h
[9] = target: T2, von Hippel-Lindau disease tumor suppressor/Estrogen receptor (Homo sapiens); assay: Protac activity at VHL/ERalpha in VHL siRNA-transfected human MCF7 cells assessed as induction of ERalpha protein degradation by measuring ERalpha protein level at 20 uM incubated for 8 hrs by western blot analysis relative to lamin B
[10] = target: T1, von Hippel-Lindau disease tumor suppressor/Aryl hydrocarbon receptor; assay: Protac activity at VHL/AhR in human MCF7 cells assessed as induction of AhR protein degradation by measuring AhR protein level at 20 uM incubated for 8 hrs in presence of ubiquitin activating inhibitor MLN7243 by western blot analysis relative to lamin B; conditions: mcf7, 8 h
[11] = target: T3, von Hippel-Lindau disease tumor suppressor/Androgen receptor (Homo sapiens); assay: Protac activity at VHL/AR in human MCF7 cells assessed as induction of AR protein degradation by measuring AR protein level at 20 uM incubated for 8 hrs in presence of ubiquitin activating inhibitor MLN7243 by western blot analysis relative to lamin B
[12] = target: T1, von Hippel-Lindau disease tumor suppressor/Aryl hydrocarbon receptor; assay: Protac activity at VHL/AhR in human MCF7 cells assessed as induction of AhR protein degradation by measuring AhR protein level at 10 uM incubated for 24 hrs by western blot analysis relative to lamin B; conditions: mcf7, 24 h
[13] = target: T1, von Hippel-Lindau disease tumor suppressor/Aryl hydrocarbon receptor; assay: Protac activity at VHL/AhR in human MCF7 cells assessed as induction of AhR protein degradation by measuring AhR protein level at 10 uM incubated for 8 hrs by western blot analysis relative to lamin B; conditions: mcf7, 8 h
[14] = target: T3, von Hippel-Lindau disease tumor suppressor/Androgen receptor (Homo sapiens); assay: Protac activity at VHL/AR in human MCF7 cells assessed as induction of AR protein degradation by measuring AR protein level at 10 uM incubated for 8 hrs by western blot analysis relative to lamin B
[15] = target: T2, von Hippel-Lindau disease tumor suppressor/Estrogen receptor (Homo sapiens); assay: Protac activity at VHL/ERalpha in human MCF7 cells assessed as induction of ERalpha protein degradation incubated for 8 to 24 hrs by western blot analysis; conditions: time hrs 8-24
[16] = target: T3, von Hippel-Lindau disease tumor suppressor/Androgen receptor (Homo sapiens); assay: Protac activity at VHL/AR in human MCF7 cells assessed as induction of AR protein degradation by measuring AR protein level at 20 uM incubated for 8 hrs by western blot analysis relative to lamin B
[17] = target: T3, von Hippel-Lindau disease tumor suppressor/Androgen receptor (Homo sapiens); assay: Protac activity at VHL/AR in human MCF7 cells assessed as induction of AR protein degradation incubated for 8 to 24 hrs by western blot analysis; conditions: time hrs 8-24
[18] = target: T2, von Hippel-Lindau disease tumor suppressor/Estrogen receptor (Homo sapiens); assay: Protac activity at VHL/ERalpha in human MCF7 cells assessed as induction of ERalpha protein degradation by measuring ERalpha protein level at 20 uM incubated for 8 hrs by western blot analysis relative to lamin B
[19] = target: T2, von Hippel-Lindau disease tumor suppressor/Estrogen receptor (Homo sapiens); assay: Protac activity at VHL/ERalpha in human MCF7 cells assessed as induction of ERalpha protein degradation by measuring ERalpha protein level at 10 uM incubated for 24 hrs by western blot analysis relative to lamin B
[20] = target: T2, von Hippel-Lindau disease tumor suppressor/Estrogen receptor (Homo sapiens); assay: Protac activity at VHL/ERalpha in human MCF7 cells assessed as induction of ERalpha protein degradation by measuring ERalpha protein level at 20 uM incubated for 24 hrs by western blot analysis relative to lamin B
[21] = target: T3, von Hippel-Lindau disease tumor suppressor/Androgen receptor (Homo sapiens); assay: Protac activity at VHL/AR in human MCF7 cells assessed as induction of AR protein degradation by measuring AR protein level at 5 uM incubated for 24 hrs by western blot analysis relative to lamin B
[22] = target: T3, von Hippel-Lindau disease tumor suppressor/Androgen receptor (Homo sapiens); assay: Protac activity at VHL/AR in human MCF7 cells assessed as induction of AR protein degradation by measuring AR protein level at 20 uM incubated for 8 hrs in presence of proteasome inhibitor, MG132 by western blot analysis relative to lamin B
[23] = target: T2, von Hippel-Lindau disease tumor suppressor/Estrogen receptor (Homo sapiens); assay: Protac activity at VHL/ERalpha in human MCF7 cells assessed as induction of ERalpha protein degradation by measuring ERalpha protein level at 5 uM incubated for 8 hrs by western blot analysis relative to lamin B
[24] = target: T1, von Hippel-Lindau disease tumor suppressor/Aryl hydrocarbon receptor; assay: Protac activity at VHL/AhR in human MCF7 cells assessed as induction of AhR protein degradation by measuring AhR protein level at 5 uM incubated for 24 hrs by western blot analysis relative to lamin B; conditions: mcf7, 24 h
[25] = target: T2, von Hippel-Lindau disease tumor suppressor/Estrogen receptor (Homo sapiens); assay: Protac activity at VHL/ERalpha in human MCF7 cells assessed as induction of ERalpha protein degradation by measuring ERalpha protein level at 5 uM incubated for 24 hrs by western blot analysis relative to lamin B
[26] = target: T2, von Hippel-Lindau disease tumor suppressor/Estrogen receptor (Homo sapiens); assay: Protac activity at VHL/ERalpha in human MCF7 cells assessed as induction of ERalpha protein degradation by measuring ERalpha protein level at 20 uM incubated for 8 hrs in presence of ubiquitin activating inhibitor MLN7243 by western blot analysis relative to lamin B
[27] = target: T3, von Hippel-Lindau disease tumor suppressor/Androgen receptor (Homo sapiens); assay: Protac activity at VHL/AR in human MCF7 cells assessed as induction of AR protein degradation by measuring AR protein level at 10 uM incubated for 24 hrs by western blot analysis relative to lamin B
[28] = target: T1, von Hippel-Lindau disease tumor suppressor/Aryl hydrocarbon receptor; assay: Protac activity at VHL/AhR in human MCF7 cells assessed as induction of AhR protein degradation by measuring AhR protein level at 5 uM incubated for 8 hrs by western blot analysis relative to lamin B; conditions: mcf7, 8 h

T1 sequence (P35869 whole entry): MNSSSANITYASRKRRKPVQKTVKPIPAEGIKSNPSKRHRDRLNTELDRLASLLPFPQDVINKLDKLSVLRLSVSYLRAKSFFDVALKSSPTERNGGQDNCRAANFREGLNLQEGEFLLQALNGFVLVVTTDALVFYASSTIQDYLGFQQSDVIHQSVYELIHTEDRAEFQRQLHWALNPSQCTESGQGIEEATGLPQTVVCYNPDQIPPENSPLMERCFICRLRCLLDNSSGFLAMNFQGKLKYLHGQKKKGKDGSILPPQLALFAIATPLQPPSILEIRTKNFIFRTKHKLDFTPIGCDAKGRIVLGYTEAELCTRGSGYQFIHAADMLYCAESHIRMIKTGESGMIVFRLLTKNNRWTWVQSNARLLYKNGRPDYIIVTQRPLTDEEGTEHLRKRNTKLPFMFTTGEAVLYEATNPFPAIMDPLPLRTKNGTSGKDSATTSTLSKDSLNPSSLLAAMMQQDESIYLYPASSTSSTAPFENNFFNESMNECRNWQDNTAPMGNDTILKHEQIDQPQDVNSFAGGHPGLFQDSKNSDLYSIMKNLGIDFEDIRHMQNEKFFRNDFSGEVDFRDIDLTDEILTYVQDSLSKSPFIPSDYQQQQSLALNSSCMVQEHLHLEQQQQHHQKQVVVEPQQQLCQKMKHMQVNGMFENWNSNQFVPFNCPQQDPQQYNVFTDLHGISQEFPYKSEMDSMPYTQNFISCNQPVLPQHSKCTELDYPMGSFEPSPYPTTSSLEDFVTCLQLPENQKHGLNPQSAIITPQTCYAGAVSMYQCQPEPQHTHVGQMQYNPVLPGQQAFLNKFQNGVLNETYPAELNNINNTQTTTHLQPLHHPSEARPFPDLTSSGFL
T1 sequence (P40337 whole entry): as the sequence (P40337 whole entry, looked up) above

CC[C@H](C)[C@@H]1NC(=O)[C@H](NC(=O)[C@@H](N)CCCCNC(=O)CCCCC(=O)NCCOCCOCCOCC(=O)N[C@H](C(=O)N2C[C@H](O)C[C@H]2C(=O)NCc2ccc(-c3scnc3C)cc2)C(C)(C)C)CSSC[C@@H](C(=O)N[C@@H](CCCNC(=N)N)C(=O)N[C@@H](CC(C)(C)C)C(=O)N[C@@H](CC(C)C)C(=O)N[C@@H](CCC(N)=O)C(=O)NCC(=O)NCC(=O)NCC(=O)N[C@@H](CCCNC(=N)N)C(=O)N[C@@H](CCCNC(=N)N)C(=O)N[C@@H](CCCNC(=N)N)C(=O)N[C@@H](CCCNC(=N)N)C(=O)N[C@@H](CCCNC(=N)N)C(=O)N[C@@H](CCCNC(=N)N)C(=O)N[C@@H](CCCNC(=N)N)C(N)=O)NC(=O)[C@H](CC(C)C)NC1=O
Activity [1]: 113%
Activity [2]: 97%
Activity [3]: 84%
Activity [4]: 92%
Activity [5]: 90%
Activity [6]: 98%
Activity [7]: 92%
Activity [8]: 105%
Activity [9]: 84%
Activity [10]: 101%
Activity [11]: 102%
Activity [12]: 100%
Activity [13]: 105%
Activity [14]: 75%
Activity [15]: Dose-dependent effect
Activity [16]: 54%
Activity [17]: Dose-dependent effect
Activity [18]: 64%
Activity [19]: 76%
Activity [20]: 57%
Activity [21]: 97%
Activity [22]: 97%
Activity [23]: 93%
Activity [24]: 83%
Activity [25]: 86%
Activity [26]: 108%
Activity [27]: 103%
Activity [28]: 84%

— ChEMBL document CHEMBL4725279, “Design and synthesis of peptide-based chimeric molecules to induce degradation of the estrogen and androgen receptors” (Bioorg Med Chem, 2020)
